Measured values reported in patent US20220017871A1, “UNDIFFERENTIATED STATE-MAINTAINING CULTURE MEDIUM FOR PLURIPOTENT STEM CELLS” (Kanto Kagaku Kabushiki Kaisha, priority 2018, published 2022).

Tests used:
iPS cells = experiment: Measurement of intracellular ROS (DCFH-DA staining, flow cytometer); assay type: cell-based, human; settings: versus medium with no additive (100%)
Procedure: In each of the basal medium with no additive and the albumin-added medium, cells were dispersed into single-cells, and after 1 hours, for each case, cells were fluorescently stained with DCFH-DA, and fluorescence intensity was measured using a flow cytometer.
Cells were cultured in the control media or in the medium to which the respective component had been added, then dispersed into single-cells. For each case, cells were fluorescently stained with DCFH-DA, and the fluorescence intensity was measured using a flow cytometer.

[1] = test system: Human iPS cell line 253G1; experiment: Confirming cell attachment (crystal violet staining); assay type: cell-based; settings: 7 days culture; 0.25 g polymer or 1 g albumin per 100 mL basal medium; iMatrix-511 coated 6-well plate; n=3
Procedure: (§1) Human iPS cell line 253G1 was washed with PBS, then treated with an equivalent mixture solution of TrypLE Select (ThermoScientific) and 0.5 mM EDTA at 37° C. for 5 minutes to be dispersed into single-cells, and collected.
The culture was carried out in the basal medium with no additive and an albumin-added medium prepared as controls, and in a medium to which polyvinyl alcohol and in a medium to which polyvinylpyrrolidone was added (n=3).
Each of the cultured cell was stained with crystal violet and the adherence of the cells was confirmed under phase-contrast microscopy.

[2] = test system: Human iPS cell line 253G1; experiment: Confirmation of cell morphology by phase-contrast microscopy; assay type: cell-based; settings: third day of culturing; additive in basal medium (albumin 1 g/100 mL; NAC 8.2 mg/100 mL); spindle = good condition, globular = bad
Procedure: as §1
The morphology of cells on the third day of culturing in the basal medium with no additive and in the albumin-added medium was observed by phase-contrast microscopy.
The morphology of cells on the third day of culturing in the control medium and in the N-acetyl-L-cysteine-added medium as a representative of 5 types of antioxidants was observed by phase-contrast microscopy.

[3] = test system: Human iPS cell line 253G1; experiment: Comparison of proliferating rate in media with each added component; assay type: cell-based; settings: 7 days culture; NAC 8.2 mg and/or PVA 0.25 g per 100 mL basal medium; basal medium only = 1; n=3
Procedure: To 100 mL of the basal medium, either only 8.2 mg of N-acetyl-L-cysteine was added, only 0.25 g of polyvinyl alcohol was added, or 8.2 mg of N-acetyl-L-cysteine and 0.25 g of polyvinyl alcohol were added.
as §1
The culture was carried out in the basal medium with no additive prepared as a control, and in a medium to which only N-acetyl-L-cysteine was added, in a medium to which only polyvinyl alcohol was added, or in a medium to which N-acetyl-L-cysteine and polyvinyl alcohol were added (n=3).

[4] = Example 1, antioxidant added to 100 mL basal medium (NAC 163 mg, GSH 307 mg)

Compound	decrease in intracellular ROS level (iPS cells; [4])	adherence of cells to culture container [1]	cell morphology [2]	decrease in intracellular ROS level (iPS cells; Comparative Example 1, 1 g albumin per 100 mL basal medium, 1 hour after dispersion into single cells)	increase in relative proliferating rate [3]
N[C@@H](CCC(=O)N[C@@H](CS)C(=O)NCC(=O)O)C(=O)O [reduced glutathione]	approximately 50%	–	–	–	–
albumin	–	stained cells were confirmed all over the culture container	spindle shape	approximately 60%	–
CC(=O)N[C@@H](CS)C(=O)O [N-acetyl-L-cysteine]	approximately 50%	–	spindle shape	–	approximately 1.4 fold
